pIC50: −log10 of the molar value.
Tests used:
VEGFR2 = target: T1, VEGFR2 (Homo sapiens, UniProt P35968); experiment: HTRF KinEASE test against VEGFR2, reported as relative selectivity IC50-VEGFR2/IC50-Aurora B; type: biochemical; conditions: ratio of IC50 against VEGFR2 to IC50 against Aurora B
T1 construct: purchased Carna 08-191
Protocol: (§1) Preparation of working solutions of compounds in DMSO with gradient concentrations: 0.2 mM solutions of the compounds in DMSO were prepared and serially diluted with DMSO to form working solutions with 10 gradient concentrations (corresponding to final compound concentrations of 1000 nM, 300 nM, 100 nM, 30 nM, 10 nM, 3 nM, 1 nM, 0.3 nM, 0.1 nM, and 0.03 nM in the reaction system).
(§2) Tests of inhibitory activity against Aurora B kinase and VEGFR2: The half maximal inhibitory concentrations (IC50) of the compounds against Aurora B kinase and VEGFR2 were determined using HTRF KinEASE-TK kit (Cisbio, Cat #62TKOPEC) and HTRF KinEASE-STK kit (Cisbio, Cat #61ST2BLE). A 2× kinase & Metal solution (Aurora B/Cat #05-102 and VEGFR2/Cat #08-191, both purchased from Carna) and a 2× Substrate & ATP solution (for Aurora B and VEGFR2, substrates S2 and TK were used, respectively) were prepared according to the kit instructions. The working solutions of the test compounds with gradient concentrations were added to a 384-well plate at 25 nL/well, and 2.5 μL of the 2× kinase & Metal solution was added to each well. The plate was sealed with a plate-sealing film, well shaken, centrifuged, and then incubated at 25° C. for 10 min. Then, the 2× Substrate & ATP solution was added at 2.5 μL/well, and the plate was incubated again at 25° C. for 30 min. Finally, a 2× XL665 & Antibody kinase detection reaction solution was added at 5 μL/well. After the plate was incubated at 25° C. for 60 min, the fluorescence signals at wavelengths of 665 nm and 620 nm in each well were measured by a microplate reader.
(§3) The 665 nm/620 nm fluorescence signal ratio (X) of each well was calculated. With the compound-free well as a negative control (Y) and the enzyme-free well as a positive control (Z), the inhibition rate of the compound in each test well against the corresponding kinase was calculated using the formula: inhibition (%)=100%−(X−Z)/(Y−Z)×100%, and the half maximal inhibitory concentration (IC50) of each compound against the corresponding kinase was calculated by GraphPad 7.0 software.

Molt-4 cells = experiment: Effects on tumor cell cycle, PI staining and flow cytometry; type: cell-based, human; conditions: 48 h
From the text: When the activity of Aurora B kinase is inhibited in tumor cells, the arrangement and separation of chromosomes are blocked, leading to cytokinesis failure and the formation of tetraploid or polyploid cells. Moreover, severe genomic instability and mitotic catastrophe result in apoptosis. The intracellular DNA content can be mapped with propidium iodide (PI), a fluorescent dye that specifically binds to nucleic acid, so that cell states can be distinguished into sub-G0/G1 (apoptosis), G0/G1, S, G2/M (tetraploid), and polyploid states.
Experimental process: Molt-4 cells (human acute lymphoblastic leukemia cells, CRL-1582) were purchased from the American Type Culture Collection (ATCC). Molt-4 cells in the logarithmic growth phase were collected from suspension culture and counted. The cells were seeded into a 6-well plate at 10^6 cells/well and cultured overnight under normal conditions. The test compounds were prepared as 1 mM and 3 mM solutions in DMSO, and the solutions in DMSO were diluted 50-fold with culture medium. Finally, the above solutions were added to the culture system in a volume ratio of 1:19, achieving a final compound concentration of 1 μM or 3 μM in each well. After 48 h of incubation, the cells were collected by centrifugation. Each cell sample was resuspended in 300 μL of PBS, and the suspension was added dropwise to 700 μL of pre-cooled absolute ethanol. Then the mixture was gently inverted several times for thorough mixing to complete cell collection and fixation. The samples were left to stand at 4° C. for more than 12 h and then analyzed by flow cytometry.
A working dye solution was prepared by homogeneously mixing PBS, a 10 mg/mL PI stock solution, and a 10 mg/mL RNase A solution in a ratio of 1000:5:2. The fixed cell samples were centrifuged at 4° C. and 1000 rpm for 10 min. The supernatants were completely removed using a pipette, and the cells were washed twice with PBS and resuspended in the above working dye solution at […]. After incubation in a dark place at 37° C. for 30 min, the cells were filtered using a 200-mesh stainless steel strainer, and the filtrate was loaded onto a flow cytometer for cell cycle analysis (10,000 cells counted per sample).
Histograms showing DNA contents were obtained from the flow cytometry analysis, and the cell cycle distribution in each sample was analyzed using the flow cytometry data analysis software FlowJo. The mean (X) and standard deviation (SD) were calculated, and data were represented as X±SD. The apoptosis and the proportions of tetraploid and polyploid cells after Molt-4 cells were treated with different doses of the test compounds are shown in Table 3 below.

[1] = Brain permeation assay in mice; type: in vivo; conditions: B/C, mouse, oral; female mice, 5 mg/kg intragastric, 4 h after administration; read-out: Brain permeation (ratio of compound concentration in brain tissue to concentration in plasma)
Protocol: The objective of this example was to test whether the compounds of the present disclosure are able to cross the blood-brain barrier (BBB). The compounds of the present disclosure were dissolved in a vehicle containing 5% dimethyl sulfoxide, 60% 1,3-propanediol, and 35% purified water, and intragastrically administered to B/C female mice aged 6 weeks (purchased from Guangdong Medical Laboratory Animal Center) at 5 mg/kg. The animals were sacrificed 4 h after the administration, and blood and brain tissue samples were collected. The blood samples were anticoagulated with K2-EDTA and centrifuged at 5000 rpm for 5 min to separate plasma. The brain tissue samples were accurately weighed and homogenized with a certain amount of phosphate-buffered saline (PBS) solution, and the biological samples were stored at −80° C. before analysis. After sample extraction, the compound concentration was determined using a liquid chromatography-tandem mass spectrometry (LC-MS/MS) system. Brain permeation was defined as the ratio of the compound concentration in brain tissue to the concentration in plasma.

PANC02 cells = experiment: Anti-tumor efficacy in PANC02 mouse pancreatic cancer graft tumor model; type: in vivo, C57BL/6 mice; conditions: for Mean tumor volumes (mm^3 ± SEM), Day 9 / Tumor volume inhibition rate (% TGI), Day 9: 10 mg/kg/day intragastric once daily; for Mean tumor volumes (mm^3 ± SEM), Day 0: 10 mg/kg/day intragastric, grouping and administration Day 0
From the text: A mouse PANC02 pancreatic cancer graft tumor model was constructed: the experimental animals were C57BL/6 mice (female, 6 weeks old), the tumor cells were PANC02 cells (mouse pancreatic cancer cells), and the cell culture medium was a DMEM culture medium containing 1% double antibiotic and 10% fetal bovine serum. PANC02 cells in the logarithmic growth phase and in good condition were collected and inoculated subcutaneously into the left flank of C57BL/6 mice at a concentration of 0.9×10^6 cells/0.2 mL. The long diameters (a, mm) and short diameters (b, mm) of the tumors were measured using a vernier caliper, and tumor volume (V, mm^3) was calculated using the formula: V=½a×b^2. Tumor volume was measured 2-3 times weekly using the vernier caliper. When the mean tumor volumes of the mice reached 190 mm^3 or above, the mice were divided into 4 groups of 8 and dosed, and the day of grouping was represented by day 0. The groups were as follows: a solvent control group (0.2% aqueous solution of CMC-Na), a compound I-9 group (10 mg/kg/day), a control molecule 01 (chiauranib) group (10 mg/kg/day), and a control molecule 02 group (10 mg/kg/day). All four groups received intragastric administration once daily for consecutive days, and the experiment was terminated on the day of the last dose.
The tumor volume results were represented as mean and standard error (Mean±S.E.M). Intergroup comparisons were performed using the Mann Whitney test. If p<0.05, the difference is considered to be statistically significant. The tumor volume inhibition rate (TGI) was calculated using the formula: TGI (%)=[1−(Ti−T0)/(Vi−V0)]×100% (Ti: mean tumor volume of the treatment group on day i of administration; TO: mean tumor volume of the treatment group on day 0 of administration; Vi: mean tumor volume of the solvent control group on day i of administration; V0: mean tumor volume of the solvent control group on day 0 of administration).

Aurora B kinase [2] = target: T2, Aurora B kinase (Homo sapiens, UniProt Q96GD4); experiment: HTRF KinEASE test of inhibitory activity against Aurora B kinase; type: biochemical; design: purchased Carna 05-102; conditions: Carna kinase, substrate S2
Protocol: as §1, §2, §3
Target sequence in this assay (Q96GD4 whole entry): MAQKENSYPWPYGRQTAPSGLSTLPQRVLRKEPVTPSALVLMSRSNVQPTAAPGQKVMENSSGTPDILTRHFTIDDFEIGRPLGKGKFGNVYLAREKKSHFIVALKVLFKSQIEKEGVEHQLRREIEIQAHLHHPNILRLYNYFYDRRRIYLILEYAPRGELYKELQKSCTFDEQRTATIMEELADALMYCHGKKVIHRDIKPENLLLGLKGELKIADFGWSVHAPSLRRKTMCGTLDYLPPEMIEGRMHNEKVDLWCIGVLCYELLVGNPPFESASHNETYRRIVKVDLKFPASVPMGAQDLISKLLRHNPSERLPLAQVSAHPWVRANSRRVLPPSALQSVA
Target sequence in this assay (Q9NQS7 803-916 partner limits assumed): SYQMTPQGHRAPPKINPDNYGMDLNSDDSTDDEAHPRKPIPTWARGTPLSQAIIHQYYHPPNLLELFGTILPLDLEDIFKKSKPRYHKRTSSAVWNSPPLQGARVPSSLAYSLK

Aurora B kinase [3] = target: T2, Aurora B kinase; experiment: In vitro cytological assays of Aurora B kinase inhibition; type: cell-based; design: dose or concentration left out as unconfirmed
Target sequence in this assay (Q96GD4 whole entry): as the sequence (Q96GD4 whole entry) above

[4] = human, 65-mg treatment group, phase I; cited from earlier work

T1 sequence (P35968 790-1356 limits assumed): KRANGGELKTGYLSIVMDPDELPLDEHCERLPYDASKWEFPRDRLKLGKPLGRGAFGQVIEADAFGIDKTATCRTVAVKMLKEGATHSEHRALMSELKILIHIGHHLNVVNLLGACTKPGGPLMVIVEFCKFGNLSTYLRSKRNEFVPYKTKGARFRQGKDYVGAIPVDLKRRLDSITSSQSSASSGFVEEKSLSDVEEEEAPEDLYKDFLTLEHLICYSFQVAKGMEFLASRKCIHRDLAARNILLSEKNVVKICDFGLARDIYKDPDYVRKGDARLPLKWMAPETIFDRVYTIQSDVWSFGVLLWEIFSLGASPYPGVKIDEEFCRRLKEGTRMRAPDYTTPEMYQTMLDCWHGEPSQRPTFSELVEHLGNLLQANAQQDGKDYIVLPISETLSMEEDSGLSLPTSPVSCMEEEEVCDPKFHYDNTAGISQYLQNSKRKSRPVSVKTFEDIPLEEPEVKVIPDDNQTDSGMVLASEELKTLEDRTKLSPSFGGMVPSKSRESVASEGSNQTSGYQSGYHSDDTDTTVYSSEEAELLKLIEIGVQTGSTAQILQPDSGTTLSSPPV

COc1ccc2c(Oc3ccc4c(C(=O)Nc5ccc(F)c(F)c5N)cccc4c3)ccnc2c1 [Compound I-9]
Selectivity for Aurora B IC50-VEGFR2/IC50-Aurora B (VEGFR2): 17.57
Apoptosis (%) DNA < 2N (Molt-4 cells; dose 1 μM): 24.60 ± 8.06%
Polyploid (%) DNA > 4N (Molt-4 cells; dose 1 μM): 55.15 ± 15.20%
Tetraploid (%) DNA = 4N (Molt-4 cells; dose 1 μM): 6.07 ± 7.25%
Total (apoptosis + tetraploid + polyploid) (Molt-4 cells; dose 1 μM): 85.82
Apoptosis (%) DNA < 2N (Molt-4 cells; dose 3 μM): 21.35 ± 5.87%
Polyploid (%) DNA > 4N (Molt-4 cells; dose 3 μM): 56.10 ± 12.02%
Tetraploid (%) DNA = 4N (Molt-4 cells; dose 3 μM): 5.39 ± 6.10%
Total (apoptosis + tetraploid + polyploid) (Molt-4 cells; dose 3 μM): 82.84
Kp at 4 h [1]: 0.6
Mean tumor volumes (mm^3 ± SEM), Day 9 (PANC02 cells): 145.9 ± 38.5 mm^3
Tumor volume inhibition rate (% TGI), Day 9 (PANC02 cells): 114.0%
Mean tumor volumes (mm^3 ± SEM), Day 0 (PANC02 cells): 193.9 ± 38.5 mm^3
Tumor volume compared with solvent control group (PANC02 cells; Day 9, Mann Whitney test, p<0.001): significantly reduced tumor volumes
Tumor volume compared with control molecule 01 (chiauranib) group (PANC02 cells; Day 9, Mann Whitney test, p<0.01): significantly reduced tumor volumes
Tumor volume compared with control molecule 02 group (PANC02 cells; Day 9, Mann Whitney test, p<0.05): significantly reduced tumor volumes
pIC50 (Aurora B kinase [2]): 8.75

COc1ccc2c(Oc3ccc4c(C(=O)Nc5ccccc5N)cccc4c3)ccnc2c1 [Control molecule 01, chiauranib, reference compound]
Selectivity for Aurora B IC50-VEGFR2/IC50-Aurora B (VEGFR2): 1.54
Apoptosis (%) DNA < 2N (Molt-4 cells; dose 1 μM): 10.23 ± 0.67%
Polyploid (%) DNA > 4N (Molt-4 cells; dose 1 μM): 3.73 ± 2.95%
Tetraploid (%) DNA = 4N (Molt-4 cells; dose 1 μM): 14.80 ± 6.51%
Total (apoptosis + tetraploid + polyploid) (Molt-4 cells; dose 1 μM): 28.76
Apoptosis (%) DNA < 2N (Molt-4 cells; dose 3 μM): 16.40 ± 6.65%
Polyploid (%) DNA > 4N (Molt-4 cells; dose 3 μM): 6.40 ± 5.66%
Tetraploid (%) DNA = 4N (Molt-4 cells; dose 3 μM): 16.25 ± 8.13%
Total (apoptosis + tetraploid + polyploid) (Molt-4 cells; dose 3 μM): 39.05
Kp at 4 h [1]: 0.28
Mean tumor volumes (mm^3 ± SEM), Day 9 (PANC02 cells): 278.4 ± 35.6 mm^3
Tumor volume inhibition rate (% TGI), Day 9 (PANC02 cells): 74.6%
Tumor volume inhibition rate (% TGI), Day 9 (PANC02 cells; listed as control molecule 01): 74.6%
Mean tumor volumes (mm^3 ± SEM), Day 0 (PANC02 cells): 191.5 ± 33.9 mm^3
Inhibitory activity against Aurora B kinase (Aurora B kinase [3]): relatively weak inhibitory activity
Dose-limiting toxicity (DLT) [4]: grade 3 hypertension
pIC50 (Aurora B kinase [2]): 7.97

COc1ccc2c(Oc3ccc4c(C(=O)Nc5ccc(F)cc5N)cccc4c3)ccnc2c1 [Control molecule 02, reference compound]
Selectivity for Aurora B IC50-VEGFR2/IC50-Aurora B (VEGFR2): 4.16
Apoptosis (%) DNA < 2N (Molt-4 cells; dose 1 μM): 10.07 ± 1.18%
Polyploid (%) DNA > 4N (Molt-4 cells; dose 1 μM): 7.94 ± 3.77%
Tetraploid (%) DNA = 4N (Molt-4 cells; dose 1 μM): 18.05 ± 0.35%
Total (apoptosis + tetraploid + polyploid) (Molt-4 cells; dose 1 μM): 36.06
Apoptosis (%) DNA < 2N (Molt-4 cells; dose 3 μM): 23.80 ± 2.26%
Polyploid (%) DNA > 4N (Molt-4 cells; dose 3 μM): 55.70 ± 1.41%
Tetraploid (%) DNA = 4N (Molt-4 cells; dose 3 μM): 8.40 ± 4.96%
Total (apoptosis + tetraploid + polyploid) (Molt-4 cells; dose 3 μM): 87.90
Kp at 4 h [1]: 0.27
Mean tumor volumes (mm^3 ± SEM), Day 9 (PANC02 cells): 299.3 ± 68.2 mm^3
Tumor volume inhibition rate (% TGI), Day 9 (PANC02 cells): 68.9%
Tumor volume inhibition rate (% TGI), Day 9 (PANC02 cells; listed as control molecule 02): 68.9%
Mean tumor volumes (mm^3 ± SEM), Day 0 (PANC02 cells): 192.7 ± 36 mm^3
pIC50 (Aurora B kinase [2]): 8.68

— patent publication US20260216169A1, “NAPHTHYLAMIDE COMPOUND, AND PREPARATION METHOD THEREFOR AND USE THEREOF” (SHENZHEN CHIPSCREEN BIOSCIENCES CO., LTD., priority 2022, published 2026)
